The assay concerns the target T1, N-formyl peptide receptor 2 (Homo sapiens, UniProt P25090).
T1 sequence (P25090 whole entry): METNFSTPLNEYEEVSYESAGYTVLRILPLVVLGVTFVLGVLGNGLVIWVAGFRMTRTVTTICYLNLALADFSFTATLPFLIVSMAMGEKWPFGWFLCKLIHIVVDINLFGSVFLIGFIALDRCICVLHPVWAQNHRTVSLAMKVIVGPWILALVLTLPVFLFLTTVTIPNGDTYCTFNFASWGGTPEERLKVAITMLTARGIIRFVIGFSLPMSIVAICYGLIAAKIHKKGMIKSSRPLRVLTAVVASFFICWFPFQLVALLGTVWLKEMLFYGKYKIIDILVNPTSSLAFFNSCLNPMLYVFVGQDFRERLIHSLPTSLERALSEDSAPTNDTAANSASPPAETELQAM
The assay is described as follows: human FPR2 ligand displacement potency – cell-based, flow cytometry, Ki from IC50, selectivity assay for FPR1 ligand SAR project, dose response (AID 723). Background: Flow cytometry measures light scatter and fluorescence of single cells or particles in a stream.

Structures are written as SMILES.

One may read the IC50 as the midpoint of a concentration-inhibition curve. Higher therefore signals weaker potency in that assay. Consider `COc1ccccc1-c1c(C(F)(F)F)oc2cc(OC(=O)c3ccco3)ccc2c1=O`, for which the IC50 is more than 66.7 µM.

Compound `O=C(Oc1ccc2c(=O)c(-c3ccccc3Cl)c(C(F)(F)F)oc2c1)c1cccs1` registered an IC50 of more than 66.7 µM.

`CC(=O)C1C(=O)C(=O)N(CCc2c(C)[nH]c3ccccc23)C1c1cccc(F)c1` (stereo unspecified): the IC50 is more than 66.7 µM.

`COc1ccc(C(=O)C2C(=O)C(=O)N(CCc3c[nH]c4ccccc34)C2c2ccc(C(C)C)cc2)cc1` (stereo unspecified) showed an IC50 of more than 66.7 µM.

As to `COc1ccc(-c2c(C)[nH]n3c(=O)c4c(nc23)CCCC4)cc1`, the IC50 was more than 66.7 µM.

In turn, `Cc1nc2c(-c3ccc(Cl)cc3)c(C(F)(F)F)[nH]n2c(=O)c1Cc1ccccc1` came in with an IC50 of more than 66.7 µM.

Compound `COc1ccc(C2C(C(=O)c3cccs3)C(=O)C(=O)N2CCCn2ccnc2)cc1` (stereo unspecified) [1-(3-imidazol-1-ylpropyl)-2-(4-methoxyphenyl)-4-oxidanyl-3-thiophen-2-ylcarbonyl-2H-pyrrol-5-one] showed an IC50 of more than 66.7 µM.

The compound `COc1cc(C2C(C(C)=O)C(=O)C(=O)N2c2ccc(Br)cc2)ccc1O` (stereo unspecified) [1-(4-bromophenyl)-3-ethanoyl-2-(3-methoxy-4-oxidanyl-phenyl)-4-oxidanyl-2H-pyrrol-5-one] returned an IC50 of more than 66.7 µM.

In the case of `Cc1sc2c(c1C)c(=O)n(Cc1ccccc1)c(=O)n2Cc1ccccc1F` [1-[(2-fluorophenyl)methyl]-5,6-dimethyl-3-(phenylmethyl)thieno[2,3-d]pyrimidine-2,4-dione], the IC50 was more than 66.7 µM.

The compound `COc1ccc(C2C(C(=O)c3cccs3)C(=O)C(=O)N2CCN2CCOCC2)c(OC)c1` (stereo unspecified) [2-(2,4-dimethoxyphenyl)-1-(2-morpholin-4-ylethyl)-4-oxidanyl-3-thiophen-2-ylcarbonyl-2H-pyrrol-5-one] returned an IC50 of more than 66.7 µM.

Compound `COc1ccc(C2C(C(=O)c3ccco3)C(=O)C(=O)N2CCCN2CCOCC2)cc1OC` (stereo unspecified) [2-(3,4-dimethoxyphenyl)-3-(furan-2-carbonyl)-4-hydroxy-1-(3-morpholin-4-ylpropyl)-2H-pyrrol-5-one] yielded an IC50 of more than 66.7 µM.

In the case of `O=C1C(=O)N(CCc2ccccc2)C(c2ccc(Cl)cc2)C1C(=O)c1cccs1` (stereo unspecified) [2-(4-chlorophenyl)-4-hydroxy-1-(2-phenylethyl)-3-(thiophene-2-carbonyl)-2H-pyrrol-5-one], the IC50 is more than 66.7 µM.

Regarding `O=C(O)C1CCCCC1C(=O)Nc1ccc(Br)cc1` (stereo unspecified) [2-[(4-bromoanilino)-oxomethyl]-1-cyclohexanecarboxylic acid], the IC50 was more than 66.7 µM.

The compound `CCC(C)(C(=O)NC1CCCCC1)N(Cc1cccs1)C(C)=O` (stereo unspecified) [2-[acetyl(2-thenyl)amino]-N-cyclohexyl-2-methyl-butyramide] registered an IC50 of more than 66.7 µM.

As for `COc1ccc(-c2c(C(F)(F)F)oc3cc(OC(=O)c4ccco4)ccc3c2=O)cc1OC` [2-furancarboxylic acid [3-(3,4-dimethoxyphenyl)-4-oxo-2-(trifluoromethyl)-1-benzopyran-7-yl] ester], the IC50 is more than 66.7 µM.

In turn, `O=C(Oc1ccc2c(=O)c(Oc3ccccc3Br)c(C(F)(F)F)oc2c1)c1cccs1` [2-thiophenecarboxylic acid [3-(2-bromophenoxy)-4-oxo-2-(trifluoromethyl)-1-benzopyran-7-yl] ester] showed an IC50 of more than 66.7 µM.

Compound `COc1cc(C2C(C(=O)c3cc4ccccc4o3)C(=O)C(=O)N2CCN(C)C)ccc1O` (stereo unspecified) [3-(1-benzofuran-2-carbonyl)-1-[2-(dimethylamino)ethyl]-4-hydroxy-2-(4-hydroxy-3-methoxyphenyl)-2H-pyrrol-5-one] yielded an IC50 of more than 66.7 µM.

Consider `COc1ccc(C2C(C(=O)c3cc4ccccc4o3)C(=O)C(=O)N2CCN(C)C)cc1OC` (stereo unspecified) [3-(1-benzofuran-2-carbonyl)-2-(3,4-dimethoxyphenyl)-1-[2-(dimethylamino)ethyl]-4-hydroxy-2H-pyrrol-5-one], for which the IC50 is more than 66.7 µM.

Consider `O=C1C(=O)N(CCCn2ccnc2)C(c2cccnc2)C1C(=O)c1cc2ccccc2o1` (stereo unspecified) [3-(1-benzofuran-2-carbonyl)-4-hydroxy-1-(3-imidazol-1-ylpropyl)-2-pyridin-3-yl-2H-pyrrol-5-one], for which the IC50 is more than 66.7 µM.

The compound `O=C1C(=O)N(CCCN2CCOCC2)C(c2cccnc2)C1C(=O)c1cc2ccccc2o1` (stereo unspecified) [3-(1-benzofuran-2-carbonyl)-4-hydroxy-1-(3-morpholin-4-ylpropyl)-2-pyridin-3-yl-2H-pyrrol-5-one] registered an IC50 of more than 66.7 µM.

Compound `COc1ccc(-c2c(C(F)(F)F)oc3c(CN4CCOCC4)c(O)ccc3c2=O)cc1OC` [3-(3,4-dimethoxyphenyl)-7-hydroxy-8-(4-morpholinylmethyl)-2-(trifluoromethyl)-1-benzopyran-4-one] had an IC50 of more than 66.7 µM.

`COc1ccc(C2C(C(=O)N3CCCC(C)C3)c3ccccc3C(=O)N2C)cc1` (stereo unspecified) [3-(4-methoxyphenyl)-2-methyl-4-(3-methylpiperidin-1-yl)carbonyl-3,4-dihydroisoquinolin-1-one]: the IC50 was more than 66.7 µM.

Compound `O=C1C(=O)N(CCCn2ccnc2)C(c2cccnc2)C1C(=O)c1ccco1` (stereo unspecified) [3-(furan-2-carbonyl)-4-hydroxy-1-(3-imidazol-1-ylpropyl)-2-pyridin-3-yl-2H-pyrrol-5-one] gave an IC50 of more than 66.7 µM.

In turn, `COc1ccc(OC)c(C2C(C(=O)c3ccc(C)cc3)C(=O)C(=O)N2CCC(=O)O)c1` (stereo unspecified) [3-[(3E)-2-(2,5-dimethoxyphenyl)-3-[(4-methylphenyl)-oxidanyl-methylidene]-4,5-bis(oxidanylidene)pyrrolidin-1-yl]propanoic acid] gave an IC50 of more than 66.7 µM.

Consider `COc1ccc(-c2c(C(F)(F)F)oc3cc(OC(=O)c4cccnc4)ccc3c2=O)cc1OC` [3-pyridinecarboxylic acid [3-(3,4-dimethoxyphenyl)-4-oxo-2-(trifluoromethyl)-1-benzopyran-7-yl] ester], for which the IC50 is more than 66.7 µM.

As for `Cc1cccc(C2CC(=O)NC3=C2C(=O)CC(c2cccs2)C3)c1` (stereo unspecified) [4-(3-methylphenyl)-7-thiophen-2-yl-1,3,4,6,7,8-hexahydroquinoline-2,5-dione], the IC50 is more than 66.7 µM.

Consider `O=C(O)CCCN1C(=O)C(=O)C(C(=O)c2ccccc2)C1/C=C/c1ccccc1` (stereo unspecified) [4-[(4E)-2,3-bis(oxidanylidene)-4-[oxidanyl(phenyl)methylidene]-5-[(E)-2-phenylethenyl]pyrrolidin-1-yl]butanoic acid], for which the IC50 is more than 66.7 µM.

As to `COc1ccc(C2C(C(=O)c3ccco3)C(=O)C(=O)N2CCN2CCOCC2)c(OC)c1` (stereo unspecified) [5-(2,4-dimethoxyphenyl)-4-(furan-2-carbonyl)-3-hydroxy-1-(2-morpholinoethyl)-1H-pyrrol-2(5H)-one], the half-inhibitory concentration (IC50) is more than 66.7 µM.

`O=C1CC(c2ccccc2C(F)(F)F)C2=C(CC(c3cccs3)CC2=O)N1` (stereo unspecified) [7-(2-thienyl)-4-[2-(trifluoromethyl)phenyl]-1,3,4,6,7,8-hexahydroquinoline-2,5-quinone]: the IC50 is more than 66.7 µM.

Compound `COCCN1C(=O)C(=O)C(C(=O)c2ccccc2)C1c1ccc(C(C)C)cc1` (stereo unspecified) [(4E)-1-(2-methoxyethyl)-4-[oxidanyl(phenyl)methylidene]-5-(4-propan-2-ylphenyl)pyrrolidine-2,3-dione] gave an IC50 of more than 66.7 µM.

`COCCN1C(=O)C(=O)C(C(=O)c2ccccc2)C1c1ccccc1OC` (stereo unspecified) [(4E)-1-(2-methoxyethyl)-5-(2-methoxyphenyl)-4-[oxidanyl(phenyl)methylidene]pyrrolidine-2,3-dione] yielded an IC50 of more than 66.7 µM.

The values are drawn from BindingDB's records for doi:10.7270/Q22V2DH9 (Nmmlsc, 2007).
